Laboratory results taken from US20010006966A1, “Use of 1- (aminoalkyl) -3-quinoxaline-2-on derivatives for the preparation of compounds having an antioxidant action” (priority 1998, published 2001).

What was measured:
skin cancer = experiment: Prevention of skin cancer in UV-irradiated guinea pigs; assay type: in vivo; conditions: highly concentrated solution brushed on shaved neck; for cancer cells in tissue samples after two weeks of UV irradiation: UV-A, UV-B, UV-C at least two hours per day
Excerpt: Use of 1-(aminoalkyl)-3-quinoxaline-2-on derivatives for preventing skin cancer in guinea pigs.
A group of six guinea pigs was shaved in the neck region and exposed to intensive UV irradiation over a period of at least two hours per day. The UV irradiation contained portions of both UV-A and UV-B and UV-C rays. A highly concentrated solution of Caroverine.hydrochloride was brushed on the shaved neck regions of four of the six guinea pigs prior to the commencement of the first irradation, wherein attention was paid to that the distribution was effected as uniform as possible and over all of the irradiated zone.

[1] = human, in vivo
[2] = system: metabotropic group I glutamate receptors; experiment: Microelectrodes on the auditory nerve of the narcotized animal; assay type: in vivo, guinea pigs
Excerpt: Furthermore, the inhibiting influence of Caroverine on the metabotropic group I glutamate receptors was investigated on the narcotized animal by applying microelectrodes to the auditory nerve.

Ca2+ ion flux into cells = conditions: as stated in EP-A 0 032 564; cited from earlier work
[3] = system: metabotropic group I glutamate receptors; experiment: Antagonism of metabotropic group I glutamate receptors in the ear of guinea pigs (behavior, ear electrodes); assay type: in vivo; conditions: 8 mg/kg into the vein of the ear
Description: Use of 1-(aminoalkyl)-3-quinoxaline-2-on derivatives as antagonists of the metabotropic group I glutamate receptors in the ear of guinea pigs.
A group of six guinea pigs was injected hydroxyphenyl glycerin as a receptor agonist into the ear, the receptor responding in a manner so as to strongly increase the auditory performance of the guinea pigs. […] Four of the six guinea pigs were subsequently injected a dose of 8 mg/kg body weight of the guinea pig into the vein of the ear and the behavior of the guinea pigs was observed. […] These behavioral peculiarities of the guinea pigs were also observed by applying electrodes to the ears of the animals, from whose measured data it could be readily read whether the exposure of the animals to unexpected noises caused excitement or not.

carcinoma of the colon = experiment: Patients with carcinoma of the colon, added to chemotherapy; assay type: in vivo, human; conditions: three patients; with Irinothekam and Oxaliplatine; day 1 i.v., other days 3×3 tablets a day
Excerpt: Three patients aged between 19 and 75 and suffering from carcinoma of the colon were additionally administered Caroverine beside the usual chemotherapy with Irinothekam and Oxaliplatine for the four-week period of chemotherapy, the administration on day 1 having been effected at an elevated dose, i.e., intravenously in physiological saline, and on the other days by administering 3×3 tablets a day.

[4] = Treatment of patients suffering from type I allergy (hay fever); assay type: in vivo, human; conditions: 5 hay fever patients, tablet 150 mg three times a day
Description: 5 patients, 2 female and 3 male patients, suffering from type I allergy, namely hay fever, were treated with Caroverine at the occurrence of allergical primary reactions, i.e., sneezing, cervical irritations as well as rhinorrhea. They each received one tablet containing 150 mg Caroverine three times a day.
For comparative reasons, two patients were treated with usual antihistamines, wherein both the primary manifestations of the allergy and, in particular, the secondary manifestations could not be suppressed immediately and completely such that the patients were suffering from their disease hay fever substantially as long as straining by the causers, namely grass pollens, was maintained. Nor was it possible to discontinue the administration of the medicament as long as pollen flight was observed.

[5] = system: advanced head and throat tumors; experiment: Patients with advanced head and throat tumors, added to chemotherapy; assay type: in vivo, human; conditions: beside the regular chemotherapy
[6] = Comparative kinetic studies with ABTA, hydroxyl radicals; assay type: biochemical; conditions: absence or presence of cerebral homogenate
Description: (§1) In respect of the antioxidative effect of 1-(aminoalkyl)-3-quinoxaline-2-on derivatives and in respect of their radical interceptor properties, in vitro tests were carried out with Caroverine and the specific radical intercepting reagent 2,2′-azino-bis(3-ethylbenz)thiazoline-6-sulfonic acid (ABTA) in order to compare the radical interceptor property of Caroverine with that of ABTA. In the presence of highly reactive radicals, ABTA is oxidized to the stable thiazoline cation radical ABTA^+. The intensive green color of that radical was photometrically measured with a main absorption band at 420 nm. […] Caroverine reacted rapidly with free hydroxyl, peroxyl and ABTA cation radicals, as was shown in comparative studies with ABTA in the absence and in the presence of cerebral homogenate. The rate constant for the reaction with hydroxyl radicals was 0.4×10^10 M/l/s and that for peroxyl radicals was 0.5×10^10 M/l/s, as was realized by comparative kinetic studies with ABTA in the absence or in the presence of cerebral homogenate (FIG. 6). […] In doing so, ABTA cation radical formation and reduction were applied, as already mentioned, in order to examine the single electron transfer reactions, since that substance enables direct measurements of radical formation and radical reduction on account of its color.

[7] = Comparative studies of antioxidant and radical interceptor property; assay type: biochemical
Excerpt: wherein R is hydroxy, methoxy, ethoxy or hydrogen, or pharmaceutically acceptable salts thereof, for the preparation of compositions acting as antioxidants for preventing or treating diseases caused by free radicals of the oxygen cell metabolism, for stimulating the growth of nerve cells, antagonizing glutamate receptors and/or stimulating the growth of, in particular glutamatergic, nerve cells. […] Moreover, it has been shown in a surprising manner that specific 1-(aminoalkyl)-3-quinoxaline-2-on derivatives and, in particular, Caroverine are capable of antagonizing metabotropic glutamate receptors. Since glutamate receptors and, in particular, metabotropic glutamate receptors have been recognized as promoters or catalysts of intracellular metabolism, Caroverine and other 1-(aminoalkyl)-3-quinoxaline-2-on derivatives are capable of antagonizing, i.e., markedly retarding, in particular, that intracellular metabolism.
For that reason, Caroverine is supposed to be able to facilitate the repair of long-lived organic radicals and damaged biomolecules.

facial nerve = experiment: Treatment of patients suffering from facial nerve paralysis; assay type: in vivo, human
Description: The neuroregenerative action of Caroverine was further investigated by way of two patients suffering from facial nerve paralysis. Two female patients suffering from a serious paralysis of the […] nerve were treated with Caroverine in the form of a combined cure over a period of 4 weeks, wherein, on the one hand, Caroverine was applied three times a day by intravenously administering 360 mg Caroverine each and the active substance, in addition, was administered in the form of a depot plaster containing 1000 mg Caroverine. The depot plaster was replaced once a week.

[8] = Treatment of patients suffering from Alzheimer's disease; assay type: in vivo, human; conditions: three weeks
Excerpt: By way of two male patients aged between 70 and 75 and suffering from Alzheimer's disease, the effect of Caroverine as a neuroregenerative substance was further investigated. The patients had average body weights of 75 kg and were in-patients. […] The time of treatment in each case was maintained for three weeks.

auditory nerve = experiment: Sound audiogram in patients with severe sudden loss of hearing / cochlear implant; assay type: in vivo, human
Description: By way of clinical examples, the efficacy of Caroverine (1-diethylaminoethyl-3-(p-methoxybenzyl)-1,2-dihydroquinoxaline-2-on) as a neuroregenerative substance was tested in two patients suffering from a severe sudden loss of hearing. In the enclosed diagram of FIG. 1, the sound audiogram of a patient is shown, the dot-and-dash line illustrating the sound audiogram after a sudden loss of hearing, the broken line illustrating the sound audiogram immediately upon commencement of the treatment, and the full line illustrating the patient's sound audiogram two weeks after the beginning of treatment, the patient over that period having been treated by the administration of an elevated dose of Caroverine. 240 mg Caroverine dissolved in 250 ml physiological saline were each slowly administered intravenously three times a day. […] A cochlear implant was not inserted.

[9] = ABTA cation radical formation and reduction, photometric at 420 nm; assay type: biochemical
Description: as §1

[10] = Speech and articulation capacity of a patient after a stroke; assay type: in vivo, human; conditions: 4×160 mg i.v. per day, 3 months, approximately 50% at beginning of treatment
Description: A patient suffering from serious speech impediments due to a stroke was intravenously administered Caroverine over a period of 3 months at an elevated dose of 4×160 mg Caroverine in physiological saline per day.

[11] = Treatment of patients suffering from periodic schizophrenia; assay type: in vivo, human
Description: 4 patients, two female and two male patients, aged between 40 and 50 and suffering from periodic schizophrenia were treated with elevated doses of Caroverine during massive attacks. […] The treatment time was 7 days, 14 days and 21 days, respectively.

HIV = HIV replication in macrophages derived from monocytes; assay type: cell-based
[12] = Comparative kinetic studies with ABTA, peroxyl radicals; assay type: biochemical; conditions: absence or presence of cerebral homogenate
Description: as §1

nerve cells = experiment: In vitro tests for neuroregenerative effect; assay type: cell-based; conditions: low dosages, dosages known from the literature

Q: What does the source list for `CCN(CC)CCn1c(=O)c(Cc2ccc(O)cc2)nc2ccccc21` [1-diethylaminoethyl-3-(p-hydroxybenzyl)-1,2-dihydroquinoxaline-2-on]?
A: cancer cells in tissue samples after two weeks of UV irradiation (skin cancer): identical result; harmful side effects in test animals and patients [1]: without harmful side effects; harmful side effects on the assayed cells (assayed cells): without harmful side effects

Q: What does the source list for `CCN(CC)CCn1c(=O)c(Cc2ccc(OC)cc2)nc2ccccc21` [Caroverine, 1-diethylaminoethyl-3-(p-methoxybenzyl)-1,2-dihydroquinoxaline-2-on]?
A: harmful side effects in test animals and patients [1]: without harmful side effects; excitability of the metabotropic group I glutamate receptors [2]: strongly suppressed; inhibition of the Ca2+ ion flux into cells (Ca2+ ion flux into cells): up to 50%; excitement upon unexpected noises, measured data of ear electrodes [3]: excitement was effected not at all or only to an extremely slight extent; behavior of guinea pigs upon noise after receptor agonist hydroxyphenyl glycerin ([3]; four of six guinea pigs): calmed down immediately; colon carcinoma after four-week chemotherapy plus Caroverine (carcinoma of the colon): complete disappearance of the colon carcinoma; secondary manifestations of the allergic reactions (cervical rubor and the like) [4]: could be avoided; primary reactions (sneezing, rhinorrhea and the like) ([4]; after two-day administration): completely disappeared; complete disappearance of head and throat tumors [5]: No complete disappearance of the tumors was feasible; tumor size, head and throat tumors [5]: reduction of the tumor size; rate constant for the reaction with hydroxyl radicals (FIG. 6) [6]: 0.4×10^10 M/l/s; effectiveness relative to the known antioxidants Ascorbate, Trolox and Glutathione [7]: at least three times as effective; radical interceptor property relative to Melatonine [7]: reach that of Melatonine; signs of facial paralysis on further extension of treatment (facial nerve; same regimen, extended period): additional reductions of the paralytical signs; signs of facial paralysis after 2 weeks (facial nerve; two female patients, 360 mg i.v. three times a day plus depot plaster 1000 mg weekly): improvement in the signs of paralysis; harmful side effects on the assayed cells (assayed cells): without harmful side effects; condition of Alzheimer patients, lower dose ([8]; 160 mg in 250 ml saline i.v. three times a day): not as pronounced and sustained; condition of Alzheimer patients at end of treatment ([8]; two male patients, 400 mg infusion three times a day): marked improvement in the conditions; improvement of hearing performance (sound audiogram, FIG. 2), low doses (auditory nerve; patient, 160 mg three times a day): little significant; hearing performance (sound audiogram, FIG. 1) (auditory nerve; patient, 240 mg in 250 ml saline i.v. three times a day, two weeks): marked increase in the hearing performance; hearing performance 0.125 to 2 kHz (sound audiogram, FIG. 2), high doses plus cochlear implant (auditory nerve; patient, 240 mg/250 ml saline four times a day, two weeks, cochlear implant inserted): nearly corresponds to the hearing performance of a healthy individual; hearing performance 0.250 to 8 kH (sound audiogram, FIG. 3) (auditory nerve; patient, 300 mg in 500 ml saline each day, two weeks, no cochlear implant): essentially corresponds to the hearing performance of a healthy individual; audition of patients carrying cochlear implants (auditory nerve; simultaneous administration with cochlear implant): clearly enhancing the audition; formation of the ABTA cation radical due to hydroxyl and peroxyl radicals (FIG. 5) ([9]; in the absence and in the presence of cerebral homogenate): able to inhibit the formation of the ABTA cation radical; ABTA cation radical reduction ([9]; in the presence and in the absence of cerebral homogenate): catalyzes ABTA cation radical reduction; activity as an electron donor ([9]; low, micromolar concentrations): highly active as an electron donor; articulation capacity after the end of treatment (FIG. 4) [10]: 100%; persistence of the improvement beyond the treatment time ([11]; 400 mg infusion three times a day, 7, 14 or 21 days): only that patient whose treatment time was 21 days was successful even beyond the treatment time; behavior of schizophrenia patients during treatment ([11]; 4 patients, 400 mg infusion three times a day, 7, 14 or 21 days): marked improvements in their behaviors; behavior of schizophrenia patients, combination with Haloperidole ([11]; daily dose 240 mg or 400 mg Caroverine in combination with 10 mg Haloperidole): results analogous to those of the higher-dose administration of Caroverine; serious side effects usual with psychopharmacological agents (apathetic conditions, weight gains) ([11]; schizophrenia patients): could be avoided; replication of HIV in macrophages derived from monocytes (HIV): markedly reduced; rate constant for the reaction with peroxyl radicals (FIG. 6) [12]: 0.5×10^10 M/l/s; neuroregenerative effect (nerve cells): no neuroregenerative effect

Q: For `CCN(CC)CCn1c(=O)c(Cc2ccc(OC)cc2)nc2ccccc21.Cl` [Caroverine.hydrochloride], which “skin injuries after two weeks of UV irradiation” value (skin cancer) is on record?
A: Its value is “some reddening of the skin”.

Q: What about the “cancer cells in tissue samples after two weeks of UV irradiation” value (skin cancer) of the same compound?
A: Its value is “no cancer cells could be detected”.
